Experimental data taken from ChEMBL document CHEMBL3044750, “Preparation of N-substituted aryl and alkyl carbamates and their inhibitory effect on oat seed germination” (2002).

Key:
[1] = tested on: Avena sativa; assay: Inhibition of Avena sativa var. Zenshin seed germination assessed as root length at 1 uM after 6 days (reference value: 7 cm); assay type: functional
[2] = tested on: Avena sativa; assay: Inhibition of Avena sativa var. Zenshin seed germination assessed as coleoptile length at 1 uM after 6 days (reference value: 9.5 cm); assay type: functional

Compound: O=C(NCSc1ccccc1)Oc1ccc(Cl)cc1Cl [2,4-DICHLOROPHENYL PHENYLTHIOMETHYLCARBAMATE]
- Activity [1]: 0 cm
- Activity [2]: 0 cm

Compound: O=C(Nc1ccccc1)OCCCc1ccccc1 [3-PHENYLPROPYL PHENYLCARBAMATE]
- Activity [1]: 1.9 cm
- Activity [2]: 3.5 cm

Compound: O=C(NCSc1ccccc1)OCCCc1ccccc1 [3-PHENYLPROPYL PHENYLTHIOMETHYLCARBAMATE]
- Activity [1]: 3.9 cm
- Activity [2]: 4.6 cm

Compound: COc1ccc(COC(=O)NCSc2ccccc2)cc1 [4-METHOXYBENZYL PHENYLTHIOMETHYLCARBAMATE]
- Activity [1]: 0.9 cm
- Activity [2]: 1.4 cm

Compound: O=C(Nc1ccccc1)OCCCCc1ccccc1 [4-PHENYLBUTYL PHENYLCARBAMATE]
- Activity [1]: 1.2 cm
- Activity [2]: 4.9 cm

Compound: O=C(Nc1ccccc1)OCCCCCc1ccccc1 [5-PHENYLPENTYL PHENYLCARBAMATE]
- Activity [1]: 2.1 cm
- Activity [2]: 6.6 cm

Compound: O=C(NCCc1ccccc1)OCc1ccccc1 [BENZYL PHENETHYLCARBAMATE]
- Activity [1]: 2.8 cm
- Activity [2]: 5.2 cm

Compound: O=C(Nc1ccccc1)OCc1ccccc1 [BENZYL PHENYLCARBAMATE]
- Activity [1]: 1.2 cm
- Activity [2]: 2.8 cm

Compound: O=C(NCSc1ccccc1)OCc1ccccc1 [BENZYL PHENYLTHIOMETHYLCARBAMATE]
- Activity [1]: 0 cm
- Activity [2]: 0 cm

Compound: CCCCOC(=O)NCSc1ccccc1 [BUTYL PHENYLTHIOMETHYLCARBAMATE]
- Activity [1]: 3.4 cm
- Activity [2]: 2.6 cm

Compound: CC(C)OC(=O)Nc1cccc(Cl)c1 [CHLORPROPHAM]
- Activity [1]: 0 cm
- Activity [2]: 0 cm

Compound: O=C(Nc1ccccc1)OC/C=C/c1ccccc1 [CINNAMYL PHENYLCARBAMATE]
- Activity [1]: 0.4 cm
- Activity [2]: 3.4 cm

Compound: O=C(NCSc1ccccc1)OC/C=C/c1ccccc1 [CINNAMYL PHENYLTHIOMETHYLCARBAMATE]
- Activity [1]: 2.6 cm
- Activity [2]: 2.2 cm

Compound: CCOC(=O)NCSc1ccccc1 [ETHYL PHENYLTHIOMETHYLCARBAMATE]
- Activity [1]: 1 cm
- Activity [2]: 0.8 cm

Compound: CC(C)OC(=O)NCSc1ccccc1 [ISOPROPYL PHENYLTHIOMETHYLCARBAMATE]
- Activity [1]: 0 cm
- Activity [2]: 0 cm

Compound: COC(=O)NCSc1ccccc1 [METHYL PHENYLTHIOMETHYLCARBAMATE]
- Activity [1]: 0 cm
- Activity [2]: 0 cm

Compound: O=C(Nc1ccccc1)OCCc1ccccc1 [PHENETHYL PHENYLCARBAMATE]
- Activity [1]: 0.2 cm
- Activity [2]: 0.3 cm

Compound: O=C(NCSc1ccccc1)OCCc1ccccc1 [PHENETHYL PHENYLTHIOMETHYLCARBAMATE]
- Activity [1]: 0 cm
- Activity [2]: 0 cm

Compound: O=C(Nc1ccc(Cl)cc1)Oc1ccccc1 [PHENYL 4-CHLOROPHENYLCARBAMATE]
- Activity [1]: 4.1 cm
- Activity [2]: 8.1 cm

Compound: O=C(Nc1ccc(F)cc1)Oc1ccccc1 [PHENYL 4-FLUOROPHENYLCARBAMATE]
- Activity [1]: 4.8 cm
- Activity [2]: 6.4 cm

Compound: COc1ccc(NC(=O)Oc2ccccc2)cc1 [PHENYL 4-METHOXYPHENYLCARBAMATE]
- Activity [1]: 7.7 cm
- Activity [2]: 8.3 cm

Compound: Cc1cccc(NC(=O)Oc2ccccc2)c1 [PHENYL M-TOLYLCARBAMATE]
- Activity [1]: 4.4 cm
- Activity [2]: 5.6 cm

Compound: O=C(Nc1ccccc1)Oc1ccccc1 [PHENYL PHENYLCARBAMATE]
- Activity [1]: 1.9 cm
- Activity [2]: 4.7 cm

Compound: O=C(NCSc1ccccc1)Oc1ccccc1 [PHENYL PHENYLTHIOMETHYLCARBAMATE]
- Activity [1]: 0 cm
- Activity [2]: 0 cm

Compound: CCCOC(=O)NCSc1ccccc1 [PROPYL PHENYLTHIOMETHYLCARBAMATE]
- Activity [1]: 1.4 cm
- Activity [2]: 1.7 cm
